Laboratory results published in patent publication US20260048046A1, “METHOD FOR IMPROVING GROWTH PERFORMANCE IN FEEDLOT CATTLE” (Elanco US Inc., priority 2022, published 2026).

Test system: beef feedlot cattle
Assay: 56-d study: animal mobility (NAMI mobility score)
Type: in vivo
Conditions: for Percentage of steers, mobility score 1, Lairage / Percentage of steers, mobility score 2, Lairage / Percentage of steers, mobility score >2, Lairage / Percentage of steers, mobility score 1, Pen / Percentage of steers, mobility score 2, Pen / Percentage of steers, mobility score >2, Pen / Percentage of steers, mobility score 1, Loadout / Percentage of steers, mobility score 2, Loadout / Percentage of steers, mobility score >2, Loadout: final 56 d; for Percentage of steers, mobility score 1, Lairage / Percentage of steers, mobility score 2, Lairage / Percentage of steers, mobility score >2, Lairage: antemortem inspection at the packing plant; for Percentage of steers, mobility score 1, Pen / Percentage of steers, mobility score 2, Pen / Percentage of steers, mobility score >2, Pen: approx. 1 wk prior to harvest in home pens; for Percentage of steers, mobility score 1, Loadout / Percentage of steers, mobility score 2, Loadout / Percentage of steers, mobility score >2, Loadout: immediately prior to loading into trucks
Procedure: Animal mobility assessments were conducted three times prior to harvest at: 1) approximately 1 week prior to harvest while cattle were in their home pens; 2) after collection of final pen weights and immediately prior to loading into trucks for slaughter; and 3) at antemortem inspection during lairage at the packing plant. The mobility scorer used the North American Meat Institute's (NAMI) mobility scoring system (Edwards-Callaway et al., 2017) to evaluate cattle mobility.
The label claim variable of cumulative NH3 gas emissions over the treatment period normalized by final BW (with d −59 BW as a covariate) for the period and HCW (g of gas kg^−1 of BW or g of gas kg^−1 HCW) was determined by utilizing NH3 gas emissions equations developed from the LUB clinical effectiveness study (FDA-FOI, 2018) and validated using animals of similar BW as described by Brown et al. (2019). The pen was the experimental unit for each outcome. Differences were deemed significant using a two-sided test at Ptrt≤0.05, however, a less stringent significance threshold of Ptrt≤0.10 was used for abnormal health observations. Fixed effect of treatment and random effects of time replicate and block within time replicate were included in the model. Discrete variables were analyzed using a generalized linear mixed model, Proc GLIMMIX SAS version 9.4 unless there were convergence problems due to sparseness of data. A binomial distribution was assumed and a logit link used in the analysis. Contrasts were constructed between the CON group and each non-CON dosage group, and differences were deemed significant at Pdose≤0.05. If convergence problems arose due to sparseness of data, Fisher's exact test (binomial data; Proc FREQ in SAS) or Wilcoxon's rank-sum test (categorical data; Proc NARIWAY in SAS) was used to evaluate differences between the CON group and the non-CON dosage groups. In all cases except for health observations, differences were deemed significant at Ptrt≤0.05 for these primary discrete variables. Additionally, non-CON dosage groups were compared to one another using a significance level of Pdose≤0.05. A less stringent Ptrt≤0.10 level of significance was used for health observations.

CC(C)(Cc1ccc(Oc2ncccc2C#N)cc1)NC[C@H](O)COc1ccccc1-c1cccs1 [LUB, 2-{4-[2-({(2S)-2-Hydroxy-3-[2-(2-thienyl)phenoxy]propyl}amino)-2-methylpropyl]phenoxy}nicotinonitrile]
Percentage of steers, mobility score 1, Lairage (1.5 mg·kg^−1 DM): 80.2%
Percentage of steers, mobility score 2, Lairage (1.5 mg·kg^−1 DM): 11.8%
Percentage of steers, mobility score >2, Lairage (1.5 mg·kg^−1 DM): 8.0%
Percentage of steers, mobility score 1, Pen (1.5 mg·kg^−1 DM): 85.0%
Percentage of steers, mobility score 2, Pen (1.5 mg·kg^−1 DM): 11.4%
Percentage of steers, mobility score >2, Pen (1.5 mg·kg^−1 DM): 3.6%
Percentage of steers, mobility score 1, Loadout (1.5 mg·kg^−1 DM): 76.6%
Percentage of steers, mobility score 2, Loadout (1.5 mg·kg^−1 DM): 21.4%
Percentage of steers, mobility score >2, Loadout (1.5 mg·kg^−1 DM): 2.0%
Percentage of steers, mobility score 1, Lairage (3.5 mg·kg^−1 DM): 81.7%
Percentage of steers, mobility score 2, Lairage (3.5 mg·kg^−1 DM): 12.1%
Percentage of steers, mobility score >2, Lairage (3.5 mg·kg^−1 DM): 6.2%
Percentage of steers, mobility score 1, Pen (3.5 mg·kg^−1 DM): 85.9%
Percentage of steers, mobility score 2, Pen (3.5 mg·kg^−1 DM): 10.4%
Percentage of steers, mobility score >2, Pen (3.5 mg·kg^−1 DM): 3.7%
Percentage of steers, mobility score 1, Loadout (3.5 mg·kg^−1 DM): 73.7%
Percentage of steers, mobility score 2, Loadout (3.5 mg·kg^−1 DM): 23.1%
Percentage of steers, mobility score >2, Loadout (3.5 mg·kg^−1 DM): 3.2%
Percentage of steers, mobility score 1, Lairage (5.5 mg·kg^−1 DM): 80.9%
Percentage of steers, mobility score 2, Lairage (5.5 mg·kg^−1 DM): 12.6%
Percentage of steers, mobility score >2, Lairage (5.5 mg·kg^−1 DM): 6.5%
Percentage of steers, mobility score 1, Pen (5.5 mg·kg^−1 DM): 86.9%
Percentage of steers, mobility score 2, Pen (5.5 mg·kg^−1 DM): 8.3%
Percentage of steers, mobility score >2, Pen (5.5 mg·kg^−1 DM): 4.8%
Percentage of steers, mobility score 1, Loadout (5.5 mg·kg^−1 DM): 71.3%
Percentage of steers, mobility score 2, Loadout (5.5 mg·kg^−1 DM): 25.0%
Percentage of steers, mobility score >2, Loadout (5.5 mg·kg^−1 DM): 3.7%
Cattle scoring a mobility score of 1 or 2 (56 d, all treatments, at all assessment times): ≥ 92%
Animals receiving abnormal mobility scores of >2, across treatments (56 d, any assessment time point prior to harvest): not different across treatments
Percent of cattle scored 1 (mobility), differences among treatments (56 d, any assessment time, Ptrt≥0.17): No differences
Percent of cattle receiving mobility scores of 1 or 2, treatment differences (56 d, at any time, Ptrt≥0.170): No treatment differences
